Here are results for three compounds from patent US7655695B2, “Illudin analogs useful as anticancer agents” (The Regents of The University of California, priority 2005, dated 2010).

Values after ≈ are worked out from the molar mass of the structure shown. Where two headings read alike, the source gives them in different places. A value given as a limit tells only on which side of the number the result lay.

The test system of data set [1] is subcutaneous MV522 tumors. The data set can be described thus: MV522 mouse xenograft model. The note with it: 3/wk for 21 d; for PR (Partial Response): mice with partial response/mice. It counts as in vivo. Here is the method:
The MV522 xenograft model was used to test the in vivo activity of compounds 6 and 7 as previously described (Kelner M. J. et al., Invest New Drugs. 1996, 14, 161). Mice bearing subcutaneous MV522 tumors were dosed intraperitoneally three times a week for three weeks (3/wk for 21 d) at 10 mg/kg of irofulven, doses ranging from 7.5 to 10 mg/kg for compound 6, or 5 to 15 mg/kg for compound 7 (FIGS. 1 and 2 and Table 3). Compound 6 had potent anti-tumor activity against MV522 tumors, producing 4/6 and 5/5 partial responses in mice treated with 7.5 and 10 mg/kg doses, respectively.
The MV522 xenograft model was used to test the in vivo activity of Compound 6 administration on a weekly schedule. Nude mice bearing subcutaneous MV522 tumors were dosed intraperitoneally (IP) 1/wk for 14 d at 17.5 mg/kg Compound 6 vs 7.5 mg/kg Compound 6 or 10 mg/kg irofulven on the intermittent schedule (3/wk for 21 d). The comparator dosages were the previously-determined efficacious MTDs for the 3/wk for 21 d schedule (FIG. 5).

A short description of data set [2]: Plasma stability in pooled fresh human plasma at 37° C., LC/MS/MS. The class given is in vitro ADME. From the text: Compounds 6 and 7 were compared against irofulven for their respective plasma stability (e.g., the enhanced stability or in vivo terminal phase elimination half life (T½) of a compound in plasma; it is believed that the greater the stability and T½ the more likely it is that the compound will be incorporated into or have an effect on a cancerous cell, such as cells of a tumor or a hematologic cancerous cell). Pooled fresh human plasma was spiked with each analog, and the compound stability profile was measured at 37° C. using LC/MS/MS. […] These properties differentiate Compounds 6 and 7 from irofulven and may have enhanced therapeutic potential. The increased plasma stability of Compound 6 may be particularly advantageous in drug formulation and delivery as it relates to increased exposure of the tumor to the drug. Thus, compound 6 has increased stability in human plasma in vitro (FIG. 3).

A further data set relates to MV522 lung cancer cells. The data set can be described thus: Thymidine incorporation into cellular DNA, 2 hour exposure, MV522 tumor cell line. The class given is cell-based. The note with it: MV522, 2 hour exposure. The source says:
The anti-cancer activities of compounds 6, 7, 14, 16, 18, 20, 21 and 22 were compared to that of irofulven, 3, using MV522 lung cancer cells in vitro (See Kelner M. J. et al., Cancer Res. 1987, 47, 3186).
Background: Uptake of a labelled nucleoside into DNA is a usual measure of proliferation.

A further data set deals with HT29 colon carcinoma. The experiment in a line: MTS viability assay, 1 hour exposure, HT29. It counts as cell-based. Conditions: Homo sapiens, HT-29, HT29, 1 hour exposure. Here is the method:
(§1) Using four different cell lines, HT29 colon, OVCAR-3 ovarian, AsPC-1 pancreatic, and PC-3 prostate carcinoma, the IC50 values of compound 6 and irofulven were established for one hour incubations using the MTS viability assay (Buttke T. M. et al., J Immunol Methods. 1993, 157, 233).
A general note: Tetrazolium dyes change colour on reduction, which living cells bring about.

The subject of data set [3] is OVCAR-3 ovarian carcinoma. The experiment in a line: MTS viability assay, 1 hour exposure, OVCAR-3. It counts as cell-based. Conditions: Homo sapiens, OVCAR-3, 1 hour exposure. Here is the method:
as §1

Data set [4] has as its system AsPC-1 pancreatic carcinoma. The experiment in a line: MTS viability assay, 1 hour exposure, AsPC-1. The class given is cell-based. Here is the method: as §1
The test system of the next data set is PC-3 prostate carcinoma. The data set can be described thus: MTS viability assay, 1 hour exposure, PC-3. The class given is cell-based. Conditions: PC-3, 1 hour exposure. As for the experimental part:
as §1

A short description of data set [5]: Pharmacokinetics after single intravenous administration in male CD-1 mice. The class given is in vivo, mouse. The note with it: for clearance: read-out: CLp (converted); for Vd: read-out: Vdss. Here is the method:
The pharmacokinetics (PK) of Compound 6 was investigated in the CD-1 male mouse. A single intravenous administration of 5 mg/kg was followed by sequential blood collections and analysis of plasma by LC/MS/MS.

Data set [6] is described as follows: Maximum tolerated dose on the 3/wk for 21 d schedule. The note with it: nude, mouse, in vivo, IP, read-out: previously-determined efficacious MTD. As for the experimental part: A novel dosing schedule for acyfulvene analogs is described herein. This dosing schedule requires less frequent administration of individual dosages exceeding the previously-determined maximum tolerated dose (MTD) for each dose on an intermittent schedule of 3/wk for 21 d. For example, compound 6 was tested on a dosing schedule of 1/wk for 14 d. On this schedule, the total cumulative dose was less than the total cumulative dose administered on the 3/wk for 21 d-schedule, but with equal efficacy (FIG. 5). The 3/wk for 21 d dosing schedule is a standard method of administration for irofulven. The 1/wk for […] schedule for Compound 6 disclosed herein was unexpected based on prior work and presents a unique opportunity to administer less total dose of a cytotoxic chemotherapeutic less frequently and thereby reduce the overall toxic effect on the patient. This represents an increase in human safety and compliance, as a weekly dosing schedule is easier to follow than a more frequent dosing schedule.
The MV522 xenograft model was used to test the in vivo activity of Compound 6 administration on a weekly schedule. […] The comparator dosages were the previously-determined efficacious MTDs for the 3/wk for 21 d schedule (FIG. 5).

[7] abbreviates: Homo sapiens, ASPC1, AsPC-1, 1 hour exposure, read-out: GI50.
The mark [8] stands for this setting: mouse, plasma, 5 mg/kg IV, concentrations extrapolated from a 12.9 mg/kg IV dose.
The mark [9] stands for this setting: mouse, plasma, 5 mg/kg single IV.

The IC50 is the midpoint of a concentration-inhibition curve. A lower IC50 goes with greater potency in that assay. The GI50 is the concentration giving 50% growth inhibition. One may read the AUC(0-inf) as the area under the concentration-time curve extrapolated to infinity. A word on the half-life: it is the time needed for the level to fall by half in the phase considered. As a reminder, the AUC(0-t) is the area under the concentration-time curve up to a stated or last time point. The term Cmax denotes the peak of the concentration-time curve. By MTD is commonly meant the largest dose that counted as tolerated.

For the compound `CC(=O)ON(CC1=C(C)C=C2C(=O)[C@](C)(O)C3(CC3)C(C)=C21)C(N)=O` [Compound 7, N-Acetoxy-N-(methylacylfulvene)urea], the “% Tumor Growth Inhibition” value in [1] (5 mg/kg i.p.) was 56%; in data set [1] (5 mg/kg i.p., listed as compound 7), 56%; in [1] (10 mg/kg i.p.), 79%; in data set [1] (10 mg/kg i.p., listed as compound 7), 79%; in data set [1] (15 mg/kg i.p.), 100%. Further, the “Relative Mean Tumor Weight (Wt/Wi)” value in data set [1] (5 mg/kg i.p.) came to 4.5; in data set [1] (10 mg/kg i.p.) it was 2.2; in [1] (15 mg/kg i.p.), 0.7. Moreover, the “PR (Partial Response)” value in [1] (15 mg/kg i.p.) was 4/6. The “stability in human plasma compared with irofulven” value in data set [2] is given as “less stable”.
On to `CC1=C(CO)C2=C(C)C3(CC3)[C@@](C)(O)C(=O)C2=C1` [Irofulven, 6-hydroxymethylacylfulvene, reference compound], for which, in the data set with MV522 lung cancer cells, 1200 ± 100 nM corresponded to half-maximal inhibition (IC50). The GI50 in the data set on HT29 colon carcinoma was 1.4 µg/mL (≈ 5.68 µM). The 50% growth inhibitory concentration (GI50) in [3] was 0.15 µg/mL (≈ 0.609 µM). Further, the GI50 in data set [4] (setting [7]) was more than 100 µg/mL. In addition, the GI50 with PC-3 prostate carcinoma turned out to be 0.58 µg/mL (≈ 2.35 µM). In addition, in data set [1] (10 mg/kg i.p.), the “% Tumor Growth Inhibition” value was 100%, the “Relative Mean Tumor Weight (Wt/Wi)” value worked out at 0.8 and the “PR (Partial Response)” value was 6/7. Also, in data set [5] (setting [8]), the AUC(0-inf) is 695 ng·h/mL, the half-life was 0.0988 h, the clearance was 120 mL/min/kg and the Vd was 0.948 L/kg. In data set [5] (mouse, plasma, 5 mg/kg IV, concentrations extrapolated from a 12.9 mg/kg IV dose, read-out: AUC (0-t)), the exposure AUC(0-t) is 691 ng·h/mL. Also, the Cmax in [5] (mouse, plasma, 5 mg/kg IV, concentrations extrapolated from a 12.9 mg/kg IV dose, read-out: Cmax) is 5650 ng/mL. For the same compound, the MTD at 21 d in data set [6] is 10 mg/kg.
`CC1=C(CN(O)C(N)=O)C2=C(C)C3(CC3)[C@@](C)(O)C(=O)C2=C1` [Compound 6, N-hydroxy-N-(methylacylfulvene)urea] displayed a concentration for 50% growth inhibition (GI50) in the data set with HT29 colon carcinoma of 0.68 µg/mL (≈ 2.23 µM). The GI50 in [3] was determined as 0.6 µg/mL (≈ 1.97 µM). In addition, the 50% growth inhibitory concentration (GI50) entry in data set [4] (AsPC-1, 1 hour exposure) is reported as “greater potency”. Further, in data set [4] (setting [7]), the 50% growth inhibitory concentration (GI50) came out at 16 µg/mL (≈ 52.6 µM). The compound further registered a GI50 in the data set on PC-3 prostate carcinoma of 0.41 µg/mL (≈ 1.35 µM). In addition, in data set [1] (7.5 mg/kg i.p.), the “% Tumor Growth Inhibition” value came out at 100%, the “Relative Mean Tumor Weight (Wt/Wi)” value was determined as 0.9 and the “PR (Partial Response)” value is reported as 4/6. In [1] (10 mg/kg i.p.), the “% Tumor Growth Inhibition” value came to 100%, the “Relative Mean Tumor Weight (Wt/Wi)” value stood at 0.3 and the “PR (Partial Response)” value is reported as 5/5. Moreover, in data set [2], the “stability in human plasma compared with irofulven” value was “more stable”. For the same compound, in [5] (5 mg/kg single IV), the area under the curve AUC(0-t) was “greater”, the CLp result is reported as “reduced”, the Cmax result is on record as “greater” and the T1/2 entry is listed as “significantly longer”. Moreover, the Vdss entry in data set [5] (5 mg/kg single IV) was “reduced”. Besides, in data set [5] (setting [9]), the AUC(0-inf) came out at 2200 ng·h/mL, the half-life was 2.36 h, the clearance is 37.8 mL/min/kg and the Vd is 0.548 L/kg. Further, the AUC(0-t) in data set [5] (mouse, plasma, 5 mg/kg single IV, read-out: AUC (0-t)) stood at 2200 ng·h/mL. In addition, the maximum concentration (Cmax) in data set [5] (mouse, plasma, 5 mg/kg single IV, read-out: Cmax) is 9730 ng/mL. Moreover, the MTD at 21 d in data set [6] was 7.5 mg/kg.
